From article PMC4152014, “Glucagon-Like Peptide-1 Receptor Ligand Interactions: Structural Cross Talk between Ligands and the Extracellular Domain” (PLoS ONE, 2014)
“Also recorded” adds a separate entry of the source.

What was measured:
[1] = test system: chimera nGIP-R:GLP-1R (amino acids 1-124 of GIP-R (NP_000155) fused in-frame with amino acids 137-463 of GLP-1R); assay: cAMP accumulation in HEK293 cells transfected with chimera nGIP-R:GLP-1R; assay type: cell-based; details: GIPR/GLP-1R chimera, EC50 to EC80 concentrations of GLP-1
Method: (§1) cAMP accumulation assays were performed as previously described. HEK293 cells were transfected with plasmids expressing either wild-type GLP-1R (NP_002053) or chimera nGIP-R:GLP-1R (amino acids 1-124 of GIP-R (NP_000155) fused in-frame with amino acids 137-463 of GLP-1R).
(§2) Figure 4 Changes to HDX of nGLP-1R in the Presence of Peptide and Small Molecule Ligands. […] Deuterium exchange was measured in the presence of DDM/CHS micelles as indicated in the Experimental section The exendin-4[9-39] peptide ligand is colored gray. B) Table showing the average change in % Deuterium in this same nGLP-1R peptide ([…]) for four peptide ligands and four proposed small molecule ligands.

[2] = biological target: T1, wild-type GLP-1R (NP_002053) (Homo sapiens, UniProt P43220); assay: cAMP accumulation in HEK293 cells transfected with wild-type GLP-1R; assay type: cell-based; details: for IC50: IC50, antagonism of GLP-1 induced cAMP accumulation
T1 construct: HEK293 cells were transfected with plasmids expressing either wild-type GLP-1R (NP_002053); expressed in transfected cells; host or cells: HEK293
Method: as §1, §2

[3] = test system: nGLP-1R (N-terminal extracellular domain of GLP-1R, amino acids 24-145); assay: Differential HDX of the nGLP-1R peptide […] in the presence of ligands; assay type: binding; details: HDX-MS; for average change in % Deuterium (Δ %D) in nGLP-1R peptide WETVQKWRE: 7TM HDX buffer pH 7.5 (50 mM Hepes, 150 mM NaCl, 2% glycerol, 0.05% DDM, 0.01% CHS), stock 10 µM nGLP-1R, peptide ligands 20 µM or small molecules 100 µM, 1 h equilibration at 4°C, on-exchange 10-3600 s, 80% D2O, 4°C, 3-4 replicates, back exchange corrected with estimated 70% recovery; for protection to exchange of nGLP-1R (result in words): peptides spanning Trp32 to Glu40 of nGLP-1R, DDM/CHS micelles, pH 7.5, 4°C, significance P < 0.05 at two consecutive time points
Excerpt: (§3) Exendin-4 (cat # E7144), HPLC grade H2O, D2O (99.9%), acetonitrile, formic acid, tris-(carboxyethyl)-phosphinehydrochloride (TCEP), NaCl, NaH2PO4 and glycerol were purchased from Sigma-Aldrich. Exendin-4[9-39] […] The GLP-1R ligands 6-BPPI (6-(2,5-dichlorobenzyl)-1-hydroxy-2-(2-morpholin-4-ylethyl)-1,6-dihydropyrrolo[3′,4′:5,6]pyrido[3,4-B]indol-3(2H)-one), Boc-5 [23], T-0632 (sodium (S)-3-[1-(2-fluorophenyl)-2,3-dihydro-3-[(3-isoquinolinyl-carbonyl)amino]-6-methoxy-2-oxo-1H-indole]propanoate), [25] and TT15 (2S)-2-[[(8S)-7-benzoyl-3-[4-[(3,4-dichlorophenyl)methoxy]phenyl]-2-oxo-1,6,8,9-tetrahydropyrido[4,3-g][1,4]benzoxazine-8-carbonyl]amino]-3-[4-(4-cyanophenyl)phenyl]propanoic acid) were synthesized according to standard or published methods at Eli Lilly. Trifluoroacetic acid (TFA, Sequanal grade) was obtained from Pierce. High purity n-dodecyl-β-D-maltoside (DDM) and cholesterol hemisuccinate (CHS) were purchased from Avanti Polar Lipids. The porcine pepsin-immobilized POROS 20 AL beads (particle size 20 µm) used to pack immobilized pepsin columns were purchased from Applied Biosystems. The model peptide for gas phase scrambling experiments, […], was purchased from the American Peptide Company (#350416).

[4] = pH 7.5
Method: All stock solutions and dilutions were made using the 7TM HDX buffer. The 7TM HDX buffers were composed of 50 mM Hepes (pH 7.5), 150 mM NaCl, 2% (v/v) glycerol, 0.05% (m/v) DDM, and 0.01% (m/v) CHS in either H2O or in D2O for on-exchange. All HDX stock solutions of the N-terminal extracellular domain of the glucagon-like peptide-1 receptor (nGLP-1R) were prepared at 10 µM nGLP-1R in the 7TM HDX H2O buffer. […] All HDX stock solutions of the peptides were at 10 µM. When ligands were studied in the presence of the nGLP-1R the stock solutions contained 20 µM nGLP-1R. When ligands and receptor were mixed in stock solutions they were allowed to equilibrate for one hour at 4°C.
Solution-phase amide HDX was carried out with a fully automated system described previously [17]. […]
Mass spectra were acquired in the range of m/z 300–2000 at a resolution of 60,000 for 8 min in positive ion mode on an LTQ Orbitrap XL ETD mass spectrometer (Thermo Fisher Scientific) equipped with an ESI source operated at capillary temperature of 225°C and spray voltage of 3.5 kV. The intensity weighted average m/z value (centroid) of each peptide's isotopic envelope was calculated with in-house developed software; Workbench (Pascal et al. 2013) and converted to % Deuterium values. […]

[5] = test system: nGLP-1R (N-terminal extracellular domain of GLP-1R, amino acids 24-145); assay: Differential HDX of peptide ligands in the presence vs absence of nGLP-1R; assay type: binding; details: HDX-MS, stock 10 µM peptide with or without 20 µM nGLP-1R, DDM/CHS micelles, pH 7.5, 4°C; for protection to exchange of ligand amides near helix bend / FxxWL motif upon binding nGLP-1R: 10-3600 s, protection confined from Ala18 to Asn28
Excerpt: as §3

[6] = test system: extracellular domain of GLP-1R; details: cited from earlier work
[7] = test system: nGLP-1R (N-terminal extracellular domain of GLP-1R, amino acids 24-145); assay: Single amino acid resolution HDX by ETD of Phe22-Ser39 peptic peptide; assay type: binding; details: DDM/CHS micelles
Method: To optimize the instrument parameters and to monitor gas-phase scrambling, we employed the model peptide […] described by the Jorgensen group. Complete deuteration was achieved by incubation of the peptide in deuterated buffer (20 mM NaH2PO4, pH 2.6) for one hour at 4°C. HDX off-exchange was initiated by a 10-fold dilution into infusion buffer (50% MeOH, 0.5 M CH3COOH, pH 2.6) followed by elution over the same LC configuration used for HDX after 30 s of off-exchange. Under these conditions the peptide eluted in ∼1.6 minutes. Full-scan and ETD MS/MS spectra were acquired on the LTQ Orbitrap XL ETD. Instrument conditions were identical to those published previously except the capillary temperature was set to 75°C. Varying isolation widths and capillary temperatures were tested to minimize scrambling and maintain ion signal intensity (Figure S3). A capillary temperature of 75°C and isolation width of 12 amu was used for ETD of exendin-4[9-39]. Five replicates were run after 30 s of deuterium exchange for exendin-4[9-39] in the presence and absence of nGLP-1R on the same LC configuration described above.

[8] = 30 s of exchange, apo vs nGLP-1R bound, 5 replicates

T1 sequence (P43220 24-463): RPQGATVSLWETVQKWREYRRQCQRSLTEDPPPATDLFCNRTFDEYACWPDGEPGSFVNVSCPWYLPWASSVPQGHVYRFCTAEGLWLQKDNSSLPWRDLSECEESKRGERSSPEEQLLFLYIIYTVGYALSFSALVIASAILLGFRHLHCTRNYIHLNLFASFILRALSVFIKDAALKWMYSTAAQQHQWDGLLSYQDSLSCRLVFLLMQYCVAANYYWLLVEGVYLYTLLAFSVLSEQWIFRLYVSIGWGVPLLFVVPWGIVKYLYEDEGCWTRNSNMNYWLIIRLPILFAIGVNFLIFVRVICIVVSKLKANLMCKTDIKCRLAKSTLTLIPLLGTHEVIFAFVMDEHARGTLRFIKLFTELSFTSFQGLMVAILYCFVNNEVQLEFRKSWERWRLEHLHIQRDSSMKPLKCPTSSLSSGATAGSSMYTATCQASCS

Molecule: O=C1c2ncc3c(c2C(O)N1CCN1CCOCC1)c1ccccc1n3Cc1cc(Cl)ccc1Cl (centres unmarked) [6-BPPI, 6-(2,5-dichlorobenzyl)-1-hydroxy-2-(2-morpholin-4-ylethyl)-1,6-dihydropyrrolo[3′,4′:5,6]pyrido[3,4-B]indol-3(2H)-one]
- antagonism of GLP-1 signalling (result in words) [1]: not GIPR/GLP-1R; also recorded: inactive on a chimeric receptor
- antagonism of GLP-1 signalling (result in words) ([2]; HEK293 cells, EC50 to EC80 concentrations of GLP-1): Dose-dependent blockade of GLP-1R signalling; also recorded: effective antagonist of the GLP-1R
- IC50 ([2]; 10 pM GLP-1, HEK293 cells): 33 nM
- IC50 ([2]; 30 pM GLP-1, HEK293 cells): 110 nM
- IC50 ([2]; 100 pM GLP-1, HEK293 cells): 310 nM
- average change in % Deuterium (Δ %D) in nGLP-1R peptide WETVQKWRE [3]: -27%
- protection to exchange of nGLP-1R (result in words) [3]: thermodynamic stabilizing interactions

Molecule: COc1cc(C2C(NC(=O)c3ccc(NC(=O)OC(C)(C)C)cc3)(C(=O)O)C(c3ccc(OC(=O)c4cccs4)c(OC)c3)C2(NC(=O)c2ccc(NC(=O)OC(C)(C)C)cc2)C(=O)O)ccc1OC(=O)c1cccs1 (centres unmarked) [Boc-5]
- average change in % Deuterium (Δ %D) in nGLP-1R peptide WETVQKWRE [3]: -12%
- protection to exchange of nGLP-1R (result in words) [3]: thermodynamic stabilizing interactions

Molecule: exendin-4: GLP-1R peptide agonist, Sigma-Aldrich cat # E7144; DPP4 resistant mimetic
- deuterium incorporation / stability of hydrogen bonding network of the free peptide [4]: Lower deuterium incorporation was observed for all homologous peptides
- change in deuterium exchange at N-terminal amino acids His1 to Glu17 upon binding nGLP-1R [5]: no statistically significant change in the magnitude of deuterium exchange
- protection to exchange of ligand amides near helix bend / FxxWL motif upon binding nGLP-1R [5]: showed protection to their hydrogen bonding network around the FxxWL motif
- affinity for extracellular domain of GLP-1R (in words) [6]: high affinity
- average change in % Deuterium (Δ %D) in nGLP-1R peptide WETVQKWRE [3]: -21%
- protection to exchange of nGLP-1R (result in words) [3]: significant protection to exchange

Molecule: exendin-4[9-39]: N-terminal truncated exendin-4, a potent antagonist; Bachem cat # H-8740
- deuterium incorporation / stability of hydrogen bonding network of the free peptide [4]: significantly destabilized in the presence of nonionic detergents as compared to the agonist exendin-4
- protection to exchange of ligand amides near helix bend / FxxWL motif upon binding nGLP-1R [5]: showed protection to their hydrogen bonding network around the FxxWL motif
- deuterium incorporation for fragments from Trp25 to Asn28, absence of nGLP-1R ([7]; 30 s of exchange, apo state, 5 replicates): increasing deuterium incorporation for fragments from Trp25 to Asn28
- change in deuterium incorporation at Asn28 turn in the presence of nGLP-1R [7, 8]: small but statistically significant increase in deuterium incorporation
- protection at Trp25, Leu26 and Lys27 by nGLP-1R [7, 8]: Significant protection
- deuterium exchanged at amide of Asn28 in the presence of nGLP-1R ([7]; exendin-4[9-39] with nGLP-1R, after 30 s of exchange, average of 5 replicates): 0.33 deuterium
- affinity for extracellular domain of GLP-1R (in words) [6]: high affinity
- average change in % Deuterium (Δ %D) in nGLP-1R peptide WETVQKWRE [3]: -20%
- protection to exchange of nGLP-1R (result in words) [3]: significant protection to exchange

Molecule: oxyntomodulin: peptide agonist, Bachem #H-6058
- average change in % Deuterium (Δ %D) in nGLP-1R peptide WETVQKWRE [3]: -10%
- protection to exchange of nGLP-1R (result in words) [3]: protection to exchange was observed
